{
  "source": "ChEMBL document CHEMBL1159297",
  "about": "“Anguillosporal, a new antibacterial and antifungal metabolite from the freshwater fungus Anguillospora longissima” (1995)",
  "key": {"Staphylococcus aureus": {"test_system": "Staphylococcus aureus", "experiment": "Antibacterial activity against Staphylococcus aureus ATCC 29213 by broth macrodilution method", "type": "functional"}, "Candida albicans": {"test_system": "Candida albicans", "experiment": "Antifungal activity against Candida albicans ATCC 90029 by broth macrodilution method", "type": "functional"}},
  "data": [
    {"smiles": "CCCCC(C)c1cc(O)c(CC)c(O)c1C=O", "note": "(configuration not stated) [ANGUILLOSPORAL]", "values": [
      {"measurement": "MIC", "setting": "Staphylococcus aureus", "value": 4, "unit": "µg/mL"},
      {"measurement": "MIC", "setting": "Candida albicans", "value": 58, "unit": "µg/mL"}
    ]}
  ]
}
